Test results reported in the NIST ThermoML archive (doi:10.1016/j.fluid.2012.01.022).
Numbers after ± are expanded uncertainties.

Assays:
[1] = Crystal; DTA
[2] = Molar enthalpy of transition or fusion; conditions: Crystal; DSC

Compound: NNC(=O)c1ccncc1 [isonicotinic acid hydrazide]
- Normal melting temperature [1]: 172.69 ± 1.1 °C
- Molar enthalpy of transition or fusion [2]: 6.67 ± 0.191 kcal/mol
